# Values joined by “and” are separate entries in the source; they are usually repeats but may differ in a detail not shown here. Equal values may be shown once. Read-outs that look alike come from different tables or passages of the source.
# Key:
# HepG2 = assay: In vitro cytotoxicity, IC50 by MTT method, HepG2; assay type: cell-based, human; conditions: Homo sapiens
# Protocol: (§1) Culture medium powder RPMI1640 was dissolved in a proper amount of tri-distilled water according to the instruction of the product. […] It was the basic culture solution. The complete culture solution was added with FBS having a final concentration of 10%, 100 U/ml penicillin and 100 µg/ml streptomycin. The solution was fully stirred by a magnetic blender, and the pH of the solution was adjusted to 6.8-7.0. The volume was kept constant. After being filtered and disinfected, the solution was kept into several containers which were sealed and stored at 4° C.
# (§2) The cells were placed in a culture dish followed by the addition of complete culture liquid RPMI1640 and then cultured in a incubator comprising 5% CO2 at 37° C. In the exponential growth phase, the cells grew vigorously. If the culture liquid became yellow, the liquid should be replaced instantly.
# (§3) The cells, at a concentration of 10^5/ml, were inoculated at a 96-pore culture plate. In each pore, 100 μl cells were inoculated. The cells were placed in a CO2 incubator until the cells were in the logarithmic growth phase. The samples to be tested were added according to the preset concentration gradient. For each gradient, the test was conducted at least three times. An equivalent amount of solvent for dissolving the samples was added in the control group. After 48 h of culture, each pore was added 20 μl MTT (5 mg/ml). The cells were cultured at 37° C. for 4 h. After the supernatant was carefully removed, 100 μl DMSO was added in each pore. The plate was agitated for about 10 minutes such that the precipitates were dissolved. After that, OD value was identified with a Microplate Reader at the wavelength of 490 nm. The survival rate of the cells at various concentrations was calculated according to the following formula:
# (§4) Survival rate %=average OD value of the sample group/average OD value of the control group×100%
# (§5) Plots of log survival rate of the cells vs. concentration of the medicament were constructed, and the IC50 value of each sample was calculated according to graphing methods.
# PLA-801 = assay: In vitro cytotoxicity, IC50 by MTT method, PLA-801; assay type: cell-based
# Protocol: as §1, §2, §3, §4, §5
# Bel-7402 = assay: In vitro cytotoxicity, IC50 by MTT method, Bel-7402; assay type: cell-based; conditions: Homo sapiens, Bel-7402
# Protocol: as §1, §2, §3, §4, §5
# BGC-823 = assay: In vitro cytotoxicity, IC50 by MTT method, BGC-823; assay type: cell-based; conditions: Homo sapiens, BGC-823
# Protocol: as §1, §2, §3, §4, §5
# Hela = assay: In vitro cytotoxicity, IC50 by MTT method, Hela; assay type: cell-based; conditions: Homo sapiens
# Protocol: as §1, §2, §3, §4, §5
# Lovo = assay: In vitro cytotoxicity, IC50 by MTT method, Lovo; assay type: cell-based; conditions: Homo sapiens
# Protocol: as §1, §2, §3, §4, §5
# NIH3T3 = assay: In vitro cytotoxicity, IC50 by MTT method, NIH3T3; assay type: cell-based; conditions: Mus musculus
# Protocol: as §1, §2, §3, §4, §5
# [1] = HepG2 cell strain, read-out: IC50 HepG2
# [2] = PLA-801 cell strain, read-out: IC50 PLA-801
# [3] = Bel7402 cell strain, read-out: IC50 Bel7402
# [4] = BGC823 cell strain, read-out: IC50 BGC823
# [5] = Hela cell strain, read-out: IC50 Hela
# [6] = Lovo cell strain, read-out: IC50 Lovo
# [7] = NIH3T3 cell strain, read-out: IC50 NIH3T3
Compound,"IC50 (HepG2; HepG2, MTT, read-out: IC50) [µM]","IC50 (PLA-801; PLA-801, MTT, read-out: IC50) [µM]","IC50 (Bel-7402; BeI7402, MTT, read-out: IC50) [µM]","IC50 (BGC-823; BGC823, MTT, read-out: IC50) [µM]","IC50 (Hela; Hela, MTT, read-out: IC50) [µM]","IC50 (Lovo; Lovo, MTT, read-out: IC50) [µM]","IC50 (NIH3T3; NIH3T3, MTT, read-out: IC50) [µM]",melting point,IC50 (HepG2; [1]) [µM],IC50 (PLA-801; [2]) [µM],IC50 (Bel-7402; [3]) [µM],IC50 (BGC-823; [4]) [µM],IC50 (Hela; [5]) [µM],IC50 (Lovo; [6]) [µM],IC50 (NIH3T3; [7]) [µM]
"CCNC1(C(N)=O)C=C2C(=Nc3ccccc32)C=N1 (stereo not drawn) [Compound 19, 3-ethylamino-β-carboline-3-formamide]",80,140,160,80,90,100,200,233 to 236 °C,,,,,,,
"COC(=O)Nc1cc2c(cn1)[nH]c1ccccc12 [Compound 22, 3-[(methoxycarbonyl)amino]-β-carboline]",230,200,130,210,170,160,320,180 to 182 °C,,,,,,,
"CCOC(=O)Nc1cc2c(cn1)[nH]c1ccccc12 [Compound 23, 3-[(ethoxycarbonyl)amino]-β-carboline]",> 3000,2160,> 3000,> 3000,> 3000,> 3000,> 3000,221 to 223 °C,,,,,,,
"OCc1cc2c(cn1)[nH]c1ccccc12 [Compound 24, 3-hydroxymethyl-β-carboline]",580,1080,740,780,620,490,360,226 to 228 °C,,,,,,,
"CC(=O)COc1cc2c(cn1)[nH]c1ccccc12 [Compound 25, 3-acetylmethoxy-β-carboline]",1130,780,590,640,780,250,310,131 to 132 °C,,,,,,,
"CCCCn1c2ccccc2c2cc(C(=O)OC)ncc21 [Compound 28, methyl 9-n-butyl-β-carboline-3-carboxylate]",,,,,,,,181 to 183 °C,460,140,430,310,290,170,80
"COC(=O)c1cc2c3ccccc3n(Cc3ccccc3)c2cn1 [Compound 29, methyl 9-benzyl-β-carboline-3-carboxylate]",,,,,,,,187 to 188 °C,1770,480,60,950,120,310,360
"CCOC(=O)c1cc2c3ccccc3n(C)c2cn1 [Compound 30, ethyl 9-methyl-β-carboline-3-carboxylate]",,,,,,,,139 to 140 °C,150,120,140,150,180,100,100
"CCCCn1c2ccccc2c2cc(C(=O)OCC)ncc21 [Compound 32, ethyl 9-butyl-β-carboline-3-carboxylate]",,,,,,,,76 to 77 °C,480,70,780,760,490,170,60
"Cn1c2ccccc2c2cc(C(=O)O)ncc21 [Compound 34, 9-methyl-β-carboline-3-carboxylic acid]",,,,,,,,267 to 269 °C,150,270,330,130,90,90,130
"CCn1c2ccccc2c2cc(C(=O)O)ncc21 [Compound 35, 9-ethyl-β-carboline-3-carboxylic acid]",,,,,,,,201 to 202 °C,180,210,230,160,180,60,140
"CCCCOC(=O)c1cc2c3ccccc3n(C)c2cn1 [Compound 38, butyl 9-methyl-β-carboline-3-carboxylate]",,,,,,,,235 to 238 °C,1610,> 3000,> 3000,> 3000,> 3000,2520,> 3000
"CCCCOC(=O)c1cc2c3ccccc3n(CCCC)c2cn1 [Compound 40, butyl 9-butyl-β-carboline-3-carboxylate]",,,,,,,,94 to 95 °C,1080,2120,1080,70,950,40,50
"CCCCOC(=O)c1cc2c3ccccc3n(Cc3ccccc3)c2cn1 [Compound 41, butyl 9-benzyl-β-carboline-3-carboxylate]",,,,,,,,105 to 106 °C and 104 to 105 °C,> 3000,990,> 3000,> 3000,> 3000,1080,> 3000
"O=C(OCc1ccccc1)c1cc2c3ccccc3n(Cc3ccccc3)c2cn1 [Compound 44, benzyl 9-benzyl-β-carboline-3-carboxylate]",,,,,,,,169 to 170 °C,> 3000,> 3000,> 3000,> 3000,> 3000,> 3000,> 3000
"CCOC(=O)c1cc2c3ccccc3n(CCCc3ccccc3)c2cn1 [Compound 45, ethyl 9-phenylpropyl-β-carboline-3-carboxylate]",,,,,,,,140 to 142 °C,> 3000,> 3000,387,> 3000,> 3000,> 3000,> 3000
"CCn1c2ccccc2c2cc(NC(=O)OC)ncc21 [Compound 53, 9-ethyl-3-[(methoxycarbonyl)amino]-β-carboline]",,,,,,,,213 to 214 °C,> 3000,> 3000,> 3000,> 3000,> 3000,> 3000,> 3000
"CCOC(=O)Nc1cc2c3ccccc3n(CC)c2cn1 [Compound 54, 3-[(ethoxycarbonyl)amino]-9-ethyl-β-carboline]",,,,,,,,217 to 218 °C,> 3000,> 3000,1680,> 3000,> 3000,> 3000,> 3000
"CCOC(=O)c1cc2c3ccccc3n(C)c2c(C)n1 [Compound 56, ethyl 1,9-dimethyl-β-carboline-3-carboxylate]",,,,,,,,141 to 142 °C,100,140,490,130,110,50,60
"CCOC(=O)c1cc2c3ccccc3n(CC)c2c(C)n1 [Compound 57, ethyl 9-ethyl-1-methyl-β-carboline-3-carboxylate]",,,,,,,,96 to 98 °C,80,160,880,70,60,50,60
"CCOC(=O)c1cc2c3ccccc3n(Cc3ccccc3)c2c(C)n1 [Compound 58, ethyl 9-benzyl-1-methyl-β-carboline-3-carboxylate]",,,,,,,,155 to 156 °C,2000,1390,210,2080,250,170,1820
"CCOC(=O)c1cc2c3ccccc3n(CCCc3ccccc3)c2c(C)n1 [Compound 59, ethyl 9-phenylpropyl-1-methyl-β-carboline-3-carboxylate]",,,,,,,,101 to 102 °C,40,110,180,40,40,20,30

# — US20090227619A1, “Harmine derivatives, intermediates used in their preparations, preparation processes and use therefo” (priority 2003, published 2009)
